# Experimental data reported in patent publication US5656660A, “Compositions and methods for treating mast-cell mediated conditions” (Arris Pharmaceutical Corporation, priority 1995, dated 1997).
# Target: tryptase
# Test: In vitro tryptase inhibition assay
# Format: biochemical, human
# Conditions: tosyl-Gly-Pro-Lys-p-nitroanilide 0.5 mM; 1 h preincubation at room temperature; pH 8.2
# Experimental: The compounds to be assayed (approximately 1 mg) were dissolved in 200 μL dimethylsulfoxide (DMSO) and diluted 1:10 into buffer containing 50 millimolar (mM) Tris-HCl (pH 8.2), 100 mM sodium chloride, and 0.05% polyoxyethylenesorbitan monolaurate (Tween-20°, available from Sigma, St. Louis, Mo.). Seven additional threefold dilutions were made from the initial dilution into the same buffer supplemented with 10% DMSO. Aliquots (50 microliters, μL) from each of the eight dilutions in the series were transferred to individual wells in a 96-well U-bottom microtiter plate. […] The tryptase solution was prepared by placing 60 μg/mL of tryptase into solution with 10 mM MES (2-[N-Morpholino]ethane sulfonic acid) containing 2 mM CaCl2, 20% glycerol and 50 μg/mL heparin. The enzyme reaction was initiated with the addition of the synthetic tripeptide substrate, tosyl-Gly-Pro-Lys-p-nitroanilide (available from Sigma, 25 μL; 0.5 mM final concentration). […] Initial velocity measurements calculated from the progress curves by a kinetic analysis program (BatchKi; Petr Kuzmic, University of Wisconsin, Madison, Wis.) were used to determine apparent inhibition constants for each inhibitor.
row,SMILES,Ki [µM]
1,"NCc1ccc(CNC(=O)CNC(=O)OCc2ccc(COC(=O)NCC(=O)NCc3ccc(CN)cc3)cc2)cc1 [Example 1, Bis(p-xylylenediamineglycine)-1,4-benzenedimethanol dicarbamate]",0.00056
2,N=C(N)Nc1ccc(CNC(=O)CCNC(=O)OCc2ccc(COC(=O)NCCC(=O)NCc3ccc(NC(=N)N)cc3)cc2)cc1 [Example 3],0.009
3,"N=C(N)Nc1ccc(CNC(=O)[C@@H]2CCCN2C(=O)OCc2ccc(COC(=O)N3CCC[C@H]3C(=O)NCc3ccc(NC(=N)N)cc3)cc2)cc1 [Example 4, Bis((4-quanidylbenzyl)-L-prolineamide-N^α -carbonyl)-1,4-dimethanolbenzene]",4
4,"C[C@H](NC(=O)OCc1ccc(COC(=O)N[C@@H](C)C(=O)NCc2ccc(NC(=N)N)cc2)cc1)C(=O)NCc1ccc(NC(=N)N)cc1 [Example 5, Bis((4-guanidylbenzyl)-L-alanineamide-N^α -carbonyl)-1,4-dimethanolbenzene]",0.289
5,C[C@@H](NC(=O)OCc1ccc(COC(=O)N[C@H](C)C(=O)NCc2ccc(NC(=N)N)cc2)cc1)C(=O)NCc1ccc(NC(=N)N)cc1 [Example 6],0.364
6,N=C(N)Nc1ccc(CNC(=O)[C@H](Cc2ccccc2)NC(=O)OCc2ccc(COC(=O)N[C@@H](Cc3ccccc3)C(=O)NCc3ccc(NC(=N)N)cc3)cc2)cc1 [Example 7],0.227
7,"NCc1ccc(CNC(=O)CC(=O)NCc2ccc(CNC(=O)CC(=O)NCc3ccc(CN)cc3)cc2)cc1 [Example 9, N,N'-Bis(N-(4-aminomethylbenzl)-malonamido)-p-xylylene diamide]",0.15
8,NCc1ccc(CNC(=O)CCCC(=O)NCc2ccc(CNC(=O)CCCC(=O)NCc3ccc(CN)cc3)cc2)cc1 [Example 10],0.0088
9,"NCc1cccc(CNC(=O)CCC(=O)NCc2cccc(CNC(=O)CCC(=O)NCc3cccc(CN)c3)c2)c1 [Example 11, N,N'-Bis(N-(3-aminomethylbenzyl)succinamido)-m-xylylene diamide]",0.127
10,"NCc1ccc(C(=O)NCCCC(=O)NCc2ccc(CNC(=O)CCCNC(=O)c3ccc(CN)cc3)cc2)cc1 [Example 12, N,N'-Bis(N-(4-aminomethylbenzamido)-4-aminobutyric)-p-xylylene diamide]",0.086
11,"C[C@H](NC(=O)OCc1ccc(COC(=O)N[C@@H](C)C(=O)NCc2ccc(CN)cc2)cc1)C(=O)NCc1ccc(CN)cc1 [Example 13, Bis(p-xylylenediamine-L-alanine)-1,4-benzenedimethanol dicarbamate]",0.031
12,"C[C@@H](NC(=O)OCc1ccc(COC(=O)N[C@H](C)C(=O)NCc2ccc(CN)cc2)cc1)C(=O)NCc1ccc(CN)cc1 [Example 14, Bis(p-xylylenediamine-D-alanine)-1,4-benzenedimethanol dicarbamate]",0.366
13,"NCc1ccc(CNC(=O)CCCNC(=O)c2ccc(C(=O)NCCCC(=O)NCc3ccc(CN)cc3)cc2)cc1 [Example 15, N,N'-Bis(N-(4-aminomethylbenzyl)butyramido)terephthalamide]",0.011
14,"NCc1ccc(C(=O)NCCNC(=O)OCc2ccc(COC(=O)NCCNC(=O)c3ccc(CN)cc3)cc2)cc1 [Example 16, N,N'-Bis(4-aminomethylbenzamidoethylene)-1,4-benzenedimethanol dicarbamate]",0.396
15,"CN(Cc1ccc(CN(C)C(=O)CCCC(=O)NCc2ccc(CN)cc2)cc1)C(=O)CCCC(=O)NCc1ccc(CN)cc1 [Example 17, N,N'-Bis(N-(4-aminomethylbenzyl)glutaramido)-N,N'-bis(methyl)-p-xylylene diamide]",0.014
16,"CN(CC(=O)NCc1ccc(CN)cc1)C(=O)OCc1ccc(COC(=O)N(C)CC(=O)NCc2ccc(CN)cc2)cc1 [Example 18, Bis(p-xylylenediaminesarcosine)-1,4-benzenedimethanol dicarbamate]",0.005
17,"NCc1ccc(C(=O)NCCCNC(=O)OCc2ccc(COC(=O)NCCCNC(=O)c3ccc(CN)cc3)cc2)cc1 [Example 19, N,N'-Bis(4-aminomethylbenzamidopropylene)-1,4-benzenedimethanol dicarbamate]",0.005
18,"CN(CCCC(=O)NCc1ccc(CN)cc1)C(=O)c1ccc(C(=O)N(C)CCCC(=O)NCc2ccc(CN)cc2)cc1 [Example 20, N,N'-Bis(N-[4-aminomethylbenzyl)butyramido)-N,N'-bis(methyl)terephthalamide]",0.107
19,"NC[C@H]1CC[C@H](C(=O)NCCCNC(=O)OCc2ccc(COC(=O)NCCCNC(=O)[C@H]3CC[C@H](CN)CC3)cc2)CC1 [Example 22, N,N'-Bis(trans-4-aminomethylcyclohexyl-1-amido-propylene)-1,4-benzenedimethanol dicarbamate]",0.918

# The next lines start with the values.
row,Ki [µM],SMILES
1,0.005,CN(Cc1ccc(CN(C)C(=O)CCC(=O)NCc2ccc(CN)cc2)cc1)C(=O)CCC(=O)NCc1ccc(CN)cc1 [Example 23]
2,0.055,"NCC1CCC(CNC(=O)CCCC(=O)NCc2ccc(CNC(=O)CCCC(=O)NCC3CCC(CN)CC3)cc2)CC1 (centres unmarked) [Example 24, N,N'-Bis(N-(4-aminomethylcyclohexylmethyl)-glutaramido)-p-xylylene diamide]"
3,0.118,"CN(Cc1ccc(CN(C)C(=O)CCC(=O)NCC2CCC(CN)CC2)cc1)C(=O)CCC(=O)NCC1CCC(CN)CC1 (centres unmarked) [Example 25, N,N'-Bis(methyl)-bis(N-(4-aminomethylcyclohexylmethyl)succinamido)-p-xylylene diamide]"
4,0.123,"NCC1CCC(CNC(=O)CCC(=O)NCc2ccc(CNC(=O)CCC(=O)NCC3CCC(CN)CC3)cc2)CC1 (centres unmarked) [Example 26, N,N'-Bis(N-(4-aminomethylcyclohexylmethyl)-succinamido)-p-xylylene diamide]"
5,0.138,"CN(Cc1ccc(CN(C)C(=O)CCCC(=O)NCC2CCC(CN)CC2)cc1)C(=O)CCCC(=O)NCC1CCC(CN)CC1 (centres unmarked) [Example 27, N,N'-Bis(methyl)-bis(N-(4-aminomethylcyclohexylmethyl)-glutaramido)-p-xylylene didmine]"
6,0.643,"CC1(C)O[C@@H](C(=O)NCc2ccc(CN)cc2)[C@H](C(=O)NCc2ccc(CNC(=O)[C@@H]3OC(C)(C)O[C@H]3C(=O)NCc3ccc(CN)cc3)cc2)O1 [Example 28, N,N'-Bis(N-(4-aminomethylbenzyl)-dimethyl-2,3-isopropylidenetartaramido)-p-xylylene diamide]"
7,1.1,"NCC1CCCC(CNC(=O)CCC(=O)NCc2ccc(CNC(=O)CCC(=O)NCC3CCCC(CN)C3)cc2)C1 (centres unmarked) [Example 29, N,N'-Bis(N-(3-aminomethylcyclohexylmethyl)-succinamido)-p-xylylene diamide]"
8,2.3,"CN(Cc1ccc(CN)cc1)C(=O)CCC(=O)NCc1ccc(CNC(=O)CCC(=O)N(C)Cc2ccc(CN)cc2)cc1 [Example 30, N,N,-Bis(N-methyl-N-(4-aminomethylbenzyl)-succinamido)-p-xylylene diamide]"
9,0.012,"NCC1CCC(CNC(=O)CNC(=O)OCc2ccc(COC(=O)NCC(=O)NCC3CCC(CN)CC3)cc2)CC1 (centres unmarked) [Example 31, Bis(1,4-cyclohexyldimethylamineglycine)-1,4-benzenedimethanol dicarbamate]"
10,0.874,CN(Cc1ccc(CN)cc1)C(=O)CNC(=O)OCc1ccc(COC(=O)NCC(=O)N(C)Cc2ccc(CN)cc2)cc1 [Example 32]
